Consider 11 compounds from patent US7544711B2, “Use of nitroderivatives in urinary incontinence” (Nicox S.A., priority 1996, dated 2009).

Usually inhibition stands for how much of the control response was suppressed.

Data set [1] deals with isolated rat detrusor. As to the kind of experiment: Contraction inhibiting activity in isolated rat detrusor (40 mM KCl). It counts as cell-based. The method, then: Male Wistar rats weighing 200 to 300 g were used. The method used is described by Zhou Q. et al. (1995) (see Example 13). After sacrificing the rats by cervical displacement the urinary bladder was isolated and horizontal strips of detrusor muscle about 2 mm wide and about 5 mm long were obtained from the median region. The strips were placed in baths for isolated organs containing Krebs liquid and subjected to a 1 g tension. Tension variations during the test were measured isometrically by using a pressure transducer connected to a polygraph. The inhibitory effect of a pre-treatment with the test derivatives on contraction induced by 40 mM KCl was determined versus drugs having an opening potassium channel activity (cromakalin, nicorandil) nitroderivatives (nitroglycerin, nicorandil) and anti-inflammatories (indomethacin, naproxen, nimesulide).

Data set [2] concerns pig urethral smooth muscle. Put plainly: Relaxing effect in pig urethral smooth muscle. In kind it is cell-based. The settings on record: 10^−5 M; for Relaxation % 1: first treatment; for Relaxation % 1 / Relaxation % 2: 100% = highest relaxation in medium without Ca++; for Relaxation % 2: second consecutive treatment; for relaxing activity and tachyphylaxis (in words): two consecutive treatments. The method, then:
Samples of urethra were removed from female pigs about 6 months old.
The urethra was opened longitudinally and samples of smooth muscle about 1×2×6 mm in size were removed from an area about 4 mm below ureteral orifices. The samples of smooth muscle were placed in baths for isolated organs, incubated at 37° C. and subjected to a 10 mN tension and connected to a force transducer for measuring mechanical activity. After a period of balancing of about 60 minutes, the prepared samples were exposed to Krebs solution without Ca++ to determine the highest relaxation level. Normal tone was then restored by adding Krebs solution. The relaxation effects of the test derivatives were then measured. The test wasa repeated two consecutive times for each prepared sample in order to evaluate any tachyphylaxis effects.

Data set [3] has as its system normal urinary bladder of conscious rats. As to the kind of experiment: Cystometrogram, normal urinary bladder of conscious rats. In kind it is in vivo, rat. The settings on record: 5 mg/kg oral, 4 hours after dosing, IC=interval between contractions. The method, then: Cystometrograms of conscious rats were determined according to the method described by Howe B. B et al. (1995) (see Example 9).
Male Wistar rats weighing about 500 g were used. The rats were anaesthetised with Nembutal. After opening their abdomen and exposing their urinary bladder, a catheter filled with physiological solution was implanted in the urinary bladder and caused to emerge from the back of the animals. The abdominal muscle and skin were then sutured. 48 hours after surgery the animals were placed in metabolic cages and the catheters were connected to a perfusor which perfused 0.18 ml/min of a physiological solution into the urinary bladder, and to a pressure transducer in order to measure intravesical pressure. After stabilisation for 60 minutes, the animals were orally treated with the test products and urination frequency was than measured during 4 hours after dosing.

In data set [4] the test system is normal urinary bladder of conscious dogs. Put plainly: Cystometrogram, normal urinary bladder of conscious dogs. The conditions noted are these: 4 hours following dosing, IC=interval between contractions. In kind it is in vivo, dog. Here is the method:
The cystometrogram of conscious dogs was determined in accordance with the method described by Howe B. B. et al., ZENECA ZD 6169: a NOVEL KATP Channel opener with in vivo selectivity for urinary bladder, Journal of Pharmacology and Experimental Therapeutics, 274, 884-890, 1995.
Female Beagle dogs with urinary bladder catheterised through the urethra by operating in sterile conditions, were used. Catheters were connected to a perfusor which perfused into the urinary bladder a physiological solution and to a pressure transducer in order to measure intravesical pressure. After 15 minute stabilisation, a 30 ml bolus of physiological solution was perfused into the urinary bladder in order to measure increased intravesical pressure and a series of smaller boluses were then perfused until spontaneous contractions were observed. After a period of contraction stabilisation, contracting activity was monitored for 60 minutes. The animals were then treated orally with the test products and urination frequency was then measured during 4 hours following dosing in […].

Data set [5] concerns gastroenteric tract of rats. As to the kind of experiment: In vivo gastrointestinal safety study. Set-up: species or system rat. From the text: Forty Sprague Dawley rats weighing about 300 g were randomly divided into 4 groups and orally treated twice a day for 4 days according to the following experimental scheme:
Eighteen hours after the last treatment the rats were sacrified to determine any gastrointestinal damage.

Data set [6] has as its target T1, nitroxy-sinthetase (Rattus norvegicus, UniProt Q06518).
T1 construct: Blood was collected for neutrofil isolation; from tissue; host or cells: neutrophils isolated from blood of LPS-treated Wistar rats
As to the kind of experiment: LPS-induced nitroxysynthetase activity in rat neutrofils after i.p. dosing. In kind it is in vivo. The settings on record: 10 mg/kg i.p.; LPS 5 mg/kg i.v.; rat neutrofils four hours later; compared to the group treated with the vehicle alone. The method, then:
The nitroxy-sinthetase inhibiting activity induced by lipopolisaccharide (LPS) was determined in rat neutrofils after administration of any of the test compounds and compared with that obtained after treatment with the suspending vehicle alone (0.5% carboxymethyl cellulose, 5 ml/kg) and a product used as comparison. Briefly, Wistar rats fasted for 24 hours before treatment received one of the test compounds (10 mg/kg) intraperitoneally or the vehicle LPS (5 mg/kg) intravenously (caudal vein).
Four hours later the animals were sacrified. Blood was collected for neutrofil isolation.
The enzymatic activity was determined according to the od described by Assreuy J. et al. Feedback inhibition of nitric oxide sinthase activity by nitric oxide, British Journal of Pharmacology, […], 1993.

Data set [7] has as its system normal urinary bladders of anaesthetised rats. As to the kind of experiment: Urinary bladder voiding reflex in anaesthetised rats. The settings on record: 18 hours after last treatment, controls = 100. It counts as in vivo, rat. Here is the method:
40 Sprague Dawley rats weighing about 300 g were randomly divided into 4 groups and orally treated twice a day for 4 days according to the following experimental scheme: 18 hours after the last treatment, the effects on the urinary bladder voiding reflex were evaluated using the method described by Maggi C. A. et al., Prostanoids modulate reflex micturition by acting through capsaicin-sensitive afferents, European Journal of Pharmacology, 105-112, 1988. The animals were anaesthetised with urethane, the urinary bladder was prepared for intraluminal pressure measurement. After a stabilisation period with an empty urinary bladder, this was progressively filled with a physiological solution by slow infusion (0.046 ml/min). A contraction of the urinary bladder was observed upon reflex triggering. The volume of physiological solution and intraluminal pressure required to evoke the reflex (volume and pressure thresholds) were measured. […] All tested products increased this threshold and can, therefore, be considered useful in case of detrusor instability.

Data set [8] has as its system rat femoral artery strips. As to the kind of experiment: Relaxing activity on vessel smooth muscle (phenylephrine-contracted femoral artery strips). The conditions noted are these: contractions induced by 3×10^−5 M phenylephrine. It counts as cell-based. From the text:
Male Wistar rats weighing 200 to 300 g were used. The method used is described by Zhou Q. et al. The inhibitory mechanism of nicorandil in isolated rat urinary bladder and femoral artery, European Journal of Pharmacology, 153-159, 1995. After sacrifing the rats by cervical displacement, the femoral arteries were isolated for the preparation of helicoidal strips about 1×15 mm in size, from which the endothelium was removed. The prepared strips were placed in baths for isolated organs containing Krebs liquid and subjected to a weight of 0.5 g. Tension variations during the test were isometrically measured by means of a pressure transducer connected to a polygraph. The inhibitory effect of a treatment with the test derivatives on contractions induced by 3×10^−5 M phenylephrine versus reference preparations having a potassium channel opening activity and/or NO donors was measured.

For data set [9], the system named is hypertrophic urinary bladder strips. Put plainly: Electrically induced contraction of urinary bladder strips, rats with vesical hypertrophy. In kind it is cell-based, rat. The settings on record: 10^−6 M; hypertrophic tissue; 1/7 Hz electrical stimulation. The text has this: (§1) The vesical hypertrophy model secondary to urethral obstruction in rats described by Malmgren A. et al.: Cystometrical evaluation of bladder instability in rats with intravesical outflow obstruction, The Journal of Urology, 1987, 137, 1291-1294, was used in order to evaluate the effect of the drugs on hyperactive vesical muscle.
(§2) Male Sprague Dawley rats weighing about 250 g were used. In order to obtain partial urethral obstruction, the rats were anaesthetised with Nembutal and the urinary bladder and urethra were exposed by abdominal incision. A ligature was made around the urethra in the presence of an intraluminal cannula with 1 mm diameter. After suturing the abdominal wall the animals were stabulated for 6 weeks in order for vesical hypertrophy to start.
(§3) The in vitro experiments were conducted with the parallel use of strips obtained from normal rats and rats with vesical hypertrophy.
(§4) The in vitro urinary bladder strips were prepared as described above and the inhibition induced by the drugs on contraction induced by 1/7 Hz electrical stimulation lasting 1 msec., an above maximal voltage, produced by two platinum electrodes, was measured.

The test system of data set [10] is normal urinary bladder strips. As to the kind of experiment: Electrically induced contraction of urinary bladder strips, normal rats. The settings on record: 10^−6 M; normal tissue; 1/7 Hz electrical stimulation. It counts as cell-based, rat.
Text: as §1, §2, §3, §4

The mark [11] stands for this setting: Rattus norvegicus, 10^−4 M, contraction induced by 40 mM KCl.
[12] abbreviates: 5 mg/kg oral twice a day for 4 days.
Where [13] appears, read: 3 mg/kg oral twice a day for 4 days.
Where [14] appears, read: 3 mg/kg oral twice a day for 4 days, rats.

In data set [1] (setting [11]), `CS(=O)(=O)Nc1ccc([N+](=O)[O-])cc1Oc1ccccc1` [Nimesulide] gave an inhibition at 100 µM of 41.8%.
In the case of `O=C(Oc1cccc(CO[N+](=O)[O-])c1)c1ccccc1Nc1cccc(C(F)(F)F)c1` [NO-F], in data set [2], the “Relaxation % 1” value is given as 45.8% and the “Relaxation % 2” value is recorded as 52.1%. Besides, in [3], the “IC treated/IC baseline” value is recorded as 1.62. Further, the “IC treated/IC baseline” value in data set [4] (3 mg/kg oral) was 1.76. In addition, in [5] (5 mg/kg oral twice a day for 4 days, group of 10 rats), the “gastrointestinal damage (in words)” value is “one animal with a gastric ulcer and an animal with a duodenal ulcer”. The “NITROXY-SYNTHETASE ACTIVITY” value in data set [6] was 63 percentage. Further, in data set [7] (setting [12]), the “Pressure threshold (%)” value was determined as 203% and the “Volume threshold (%)” value stood at 205%.
As to `O=C(O)c1ccccc1Nc1cccc(C(F)(F)F)c1` [Flufenamic acid, 2-[[3-(trifluoromethyl)phenyl]-amino]benzoic acid], in data set [2], the “Relaxation % 1” value is 12.2%; the “Relaxation % 2” value is listed as 13.2%; the “relaxing activity and tachyphylaxis (in words)” value is recorded as “has itself a myorelaxing activity”. In addition, in data set [3], the “IC treated/IC baseline” value is listed as 1.42. For the same compound, the “IC treated/IC baseline” value in [4] (3 mg/kg oral) came to 1.42. Also, in data set [6], the “NITROXY-SYNTHETASE ACTIVITY” value is given as 98 percentage.
Regarding `O=[N+]([O-])OCC(CO[N+](=O)[O-])O[N+](=O)[O-]` [Nitroglycerin], in data set [2], the “Relaxation % 1” value turned out to be 32.1%; the “Relaxation % 2” value stood at 7.3%; the “relaxing activity and tachyphylaxis (in words)” value is “active but induced tachyphylaxis”. Also, 10 µM produced 28.7% inhibition in data set [1] (Rattus norvegicus).
On to `COc1ccc2cc([C@H](C)C(=O)O)ccc2c1` [Naproxen], for which, in data set [1] (Rattus norvegicus, 5 · 10^−4 M, contraction induced by 40 mM KCl), testing at 100 µM gave an inhibition of 15.2%.
For `CS(=O)(=O)N(C(=O)CCCCCO[N+](=O)[O-])c1ccc([N+](=O)[O-])cc1Oc1ccccc1` [NO-M, N-[(2-PHENOXY-4-NITRO)PHENYL]-N-(6-NITROXY)HEXANOYLMETHANE-SULPHONAMIDE], the Inhibition % in data set [1] (10^−4 M, contraction induced by 40 mM KCl) is on record as 48.1%; in data set [8] (10^−4 M), 19.5%.
As to `O=C(NCCO[N+](=O)[O-])c1cccnc1` [Nicorandil], 100 µM produced 26.4% inhibition in data set [1] (setting [11]). In data set [8] (Rattus norvegicus, 10^−6 M), this compound yielded an inhibition at 1 µM of 32.6%.
`COc1ccc2c(c1)c(CC(=O)Oc1cccc(CO[N+](=O)[O-])c1)c(C)n2C(=O)c1ccc(Cl)cc1` [NO-I]: the “Relaxation % 1” value in [2] is given as 39.3%. Moreover, the “Relaxation % 2” value in data set [2] amounted to 37.2%. Further, the inhibition at 100 µM in [1] (setting [11]) came out at 46.3%; in data set [8] (Rattus norvegicus, 10^−4 M), 22.2%. Also, the “IC treated/IC baseline” value was determined as 1.48 in data set [3] and 1.43 in data set [4] (3 mg/kg oral). Also, in data set [5] (3 mg/kg oral twice a day for 4 days, group of 10 rats), the “animals with gastric ulcers” value amounted to 1. The “Pressure threshold (%)” value in [7] (setting [13]) came to 223%. Moreover, the “Volume threshold (%)” value in data set [7] (setting [13]) was 226%. In addition, the Contraction % is 40.3% in [9] and 61.5% in data set [10].
In [1] (Rattus norvegicus, 10^−6 M, contraction induced by 40 mM KCl), `CC1(C)Oc2ccc(C#N)cc2C(N2CCCC2=O)C1O` (centres unmarked) [Cromakalim] showed an inhibition at 1 µM of 33.3%. Moreover, in [4] (0.5 mg/kg oral), the “IC treated/IC baseline” value worked out at 1.48. Moreover, at 0.3 µM the inhibition in data set [8] (Rattus norvegicus, 3 × 10^−7 M) was 54.1%. Further, the values for the Contraction % in data set [9] and in data set [10] were 35.7% and 50.5%, respectively.
Take `COc1ccc2c(c1)c(CC(=O)O)c(C)n2C(=O)c1ccc(Cl)cc1` [Indomethacin]: in [2], the “Relaxation % 1” value was found to be 1.0%; the “Relaxation % 2” value is recorded as 1.2%; the “relaxing activity and tachyphylaxis (in words)” value is “practically inactive”. The inhibition at 100 µM in data set [1] (setting [11]) came out at 38.5%. Moreover, the “IC treated/IC baseline” value in [3] is 1.34. Also, the “IC treated/IC baseline” value in [4] (3 mg/kg oral) is 1.25. Further, in data set [5] (setting [14]), the “animals with diffuse adherences” value is 3/10, the “animals with ulceration also in the intestines” value is recorded as 7/19 and the “gastrointestinal damage (in words)” value is listed as “ulceration was observed in the stomachs”. Moreover, in data set [7] (setting [13]), the “Pressure threshold (%)” value amounted to 190% and the “Volume threshold (%)” value is 198%. In data set [9], the Contraction % is listed as 76.3%. Besides, the Contraction % in data set [10] is 78.2%.
For `N=C(N)NCCC[C@H](N)C(=O)O` [L-arginine], in [2], the “Relaxation % 1” value is on record as 22.7%; the “Relaxation % 2” value was found to be 12.2%; the “relaxing activity and tachyphylaxis (in words)” value was “active but induced tachyphylaxis”.
